Experimental data from paper PMC7078479, “Sulfamoyl Heteroarylcarboxylic Acids as Promising Metallo-β-Lactamase Inhibitors for Controlling Bacterial Carbapenem Resistance” (mBio, 2020).
Read-outs that look alike come from different tables or passages of the source.

Experiments:
IMP-1 = biological target: T1, IMP-1 (Serratia marcescens, UniProt P52699); experiment: Inhibition of IPM hydrolysis by purified IMP-1, Ki by Lineweaver-Burk plots; assay type: biochemical
T1 construct: made in house
Procedure: (§1) MBL (10 nM) was mixed with the inhibitors and incubated for 5 min at 30°C. IPM was added to reach a concentration of 150 μM, and the velocity of IPM hydrolysis was monitored at 298 nm. The assay was performed at 30°C using 10 mM HEPES (pH 7.5) buffer containing 200 mM NaCl and 50 μg/ml bovine serum albumin (BSA) for IMP-1, NDM-1, VIM-2, and SMB-1. For SFH-1 and L1, another 10 mM HEPES (pH 7.5) buffer containing 200 mM NaCl, 20 μM ZnSO4, and 50 μg/ml BSA was used.
(§2) Initial velocities (vo) were measured after varying the concentrations of IPM and inhibitors, and inverse velocities (1/vo) were plotted against inverse IPM concentrations […]. Lineweaver-Burk plots were constructed to obtain the inhibition constant (Ki) with the competitive inhibition model using the SigmaPlot 13 suite (Hulinks).

VIM-2 = biological target: T2, VIM-2 (Escherichia coli, UniProt Q5U7L7); experiment: Inhibition of IPM hydrolysis by purified VIM-2, Ki by Lineweaver-Burk plots; assay type: biochemical; conditions: IPM as substrate, competitive model, mean of three replicates; read-out: Inhibition constant Ki VIM-2
T2 construct: made in house
Procedure: as §1, §2

NDM-1 = biological target: T3, NDM-1 (Klebsiella pneumoniae, UniProt C7C422); experiment: Inhibition of IPM hydrolysis by purified NDM-1, Ki by Lineweaver-Burk plots; assay type: biochemical; conditions: IPM as substrate, competitive model, mean of three replicates; read-out: Inhibition constant Ki NDM-1
T3 construct: made in house
T3 sequence (C7C422 29-270 limits assumed): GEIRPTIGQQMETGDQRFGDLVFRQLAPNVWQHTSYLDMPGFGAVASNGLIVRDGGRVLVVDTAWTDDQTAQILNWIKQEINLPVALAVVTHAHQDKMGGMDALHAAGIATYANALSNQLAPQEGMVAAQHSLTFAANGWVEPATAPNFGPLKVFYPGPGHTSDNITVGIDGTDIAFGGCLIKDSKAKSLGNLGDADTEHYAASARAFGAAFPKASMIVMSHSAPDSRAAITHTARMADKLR
Procedure: as §1, §2

[1] = test system: IMP producers rather than NDM/VIM producers; conditions: cited from earlier work
E. coli DH5α/pBC-VIM-2 = experiment: Susceptibility and checkerboard testing, VIM-2-producing E. coli; assay type: cell-based, Escherichia coli; conditions: for MIC: Escherichia coli
Procedure: (§3) MICs were determined via the microdilution method according to the CLSI guidelines ([38]). In brief, 5 × 10^4 bacterial cells were inoculated in 100 μl of cation-adjusted Mueller-Hinton broth (Becton, Dickinson and Company, Franklin Lakes, NJ) containing the β-lactams and appropriately diluted inhibitors. The final concentration of DMSO was maintained at 2% in the assays. The tested plates were then incubated at 35°C for 16 to 20 h. The MIC value was determined as the lowest concentration of tested β-lactams where no bacterial growth was visibly observed. The optical density at 600 nm (OD600) value was measured using a plate reader for drawing the heat maps. The FIC index value was calculated using the following equation: FIC index=MIC of β-lactam with inhibitor/MIC of β-lactam alone+MIC of inhibitor with β-lactam/MIC of inhibitor alone
(§4) Unless noted otherwise, the FIC index was defined as the lowest value among all obtained values. The synergistic effect was defined as the effect observed when the FIC index value was ≤0.5.

[2] = Human liver microsomal stability test; assay type: in vitro ADME; conditions: 100 nM compound, 0.1 mg protein/ml, 35 min, 37°C
Procedure: Human liver microsomal stability tests were performed by Sumika Chemical Analysis Service (Osaka, Japan). Compounds (100 nM) were incubated with human liver microsomes (0.1 mg protein/ml) for 35 min at 37°C and subjected to liquid chromatography-tandem mass spectrometry (LC-MS/MS) for quantification of the loss of the tested compounds.

[3] = test system: E. coli BL21(DE3)/pET-DIM-1; experiment: Susceptibility testing, DIM-1-producing E. coli; assay type: cell-based; conditions: Escherichia coli
Procedure: as §3

[4] = test system: P. aeruginosa PAO1/pME-IMP-1; experiment: Susceptibility testing, IMP-1-producing P. aeruginosa PAO1; assay type: cell-based; conditions: Pseudomonas aeruginosa
Procedure: as §3

HeLa cells = experiment: Toxicity assay in HeLa cells (CellTiter 96 AQueous); assay type: cell-based; conditions: 24 h exposure, cell proliferation assay
Procedure: HeLa cells were seeded at 5,000 cells per well in 96-well plates and cultured in Dulbecco’s modified Eagle’s medium (DMEM) (Wako Pure Chemical Industries, Osaka, Japan). After incubation for 24 h at 37°C with 5% CO2, staurosporine (Sigma-Aldrich, St. Louis, MO) and SHCs were added to each well (final DMSO concentration was 1%), after which the plates were incubated for another 24 h. Twenty microliters of tetrazolium solution, obtained from a CellTiter 96 AQueous one-solution cell proliferation assay kit (Promega, Madison, WI), was added into each well. The plate was incubated for 3 h under the same conditions mentioned above, and the absorbance at 490 nm was measured for the determination of cell proliferation.

[5] = test system: E. coli BL21(DE3)/pET-SPM-1; experiment: Susceptibility testing, SPM-1-producing E. coli; assay type: cell-based; conditions: Escherichia coli
Procedure: as §3

E. coli DH5α/pBC-NDM-1 = experiment: Susceptibility and checkerboard testing, NDM-1-producing E. coli; assay type: cell-based, Escherichia coli; conditions: for MIC: Escherichia coli
Procedure: as §3, §4

[6] = test system: NDM-type MBL-producing Enterobacteriaceae; experiment: Susceptibility testing, 14 NDM-type MBL-producing Enterobacteriaceae isolates; assay type: cell-based; conditions: NDM producers
Procedure: as §3

[7] = test system: P. aeruginosa PAO1/pME-VIM-2; experiment: Susceptibility testing, VIM-2-producing P. aeruginosa PAO1; assay type: cell-based; conditions: Pseudomonas aeruginosa
Procedure: as §3

[8] = test system: IMP-1-producing Acinetobacter spp.; experiment: Susceptibility testing, 8 IMP-1-producing Acinetobacter spp. isolates; assay type: cell-based; conditions: addition of SPC, concentration not given (Fig. S5)
Procedure: as §3

E. coli DH5α/pBC-IMP-1 = experiment: Susceptibility and checkerboard testing, IMP-1-producing E. coli; assay type: cell-based, Escherichia coli; conditions: for MIC: Escherichia coli
Procedure: as §3, §4

[9] = test system: IMP-type MBL-producing Enterobacteriaceae; experiment: Susceptibility testing, 19 IMP-type MBL-producing Enterobacteriaceae isolates; assay type: cell-based
Procedure: as §3

[10] = test system: E. coli BL21(DE3)/pET-KHM-1; experiment: Susceptibility testing, KHM-1-producing E. coli; assay type: cell-based; conditions: Escherichia coli
Procedure: as §3

[11] = test system: P. aeruginosa PAO1/pME-NDM-1; experiment: Susceptibility testing, NDM-1-producing P. aeruginosa PAO1; assay type: cell-based; conditions: Pseudomonas aeruginosa
Procedure: as §3

[12] = test system: dually NDM-1/VIM-1-producing Klebsiella pneumoniae MS5674; experiment: Mouse infection model, K. pneumoniae MS5674, survival; assay type: in vivo, mice; conditions: MPM 4 mg/kg and SPC 10 mg/kg versus MPM alone, K. pneumoniae MS5674 1 × 10^7 CFU
Procedure: (§5) All experiments were approved by the Nagoya University Animal Ethics Committee, and all experiments were performed in a manner that minimized animal suffering. Male CD1 mice (4 weeks old; 20 to 25 g body weight) were purchased from Charles River Laboratories Japan (Yokohama, Japan). E. coli NUBL-24 (blaIMP-1) and K. pneumoniae MS5674 (blaNDM-1 and blaVIM-1) strains were inoculated on LB agar plates and grown for 18 h at 37°C. Bacteria were then scraped from the plates, and their concentration was adjusted to 5 × 10^6 to 1 × 10^7 CFU in saline solution containing 5% mucin; this solution was then i.p. injected into the mice. At 1 and 3 h after infection, saline solution, MPM, inhibitors, and a combination of MPM and inhibitor were i.p. injected. Mice were monitored for 7 days to formulate survival curves, after which they were euthanized by CO2 asphyxiation.

[13] = test system: IMP-1-producing E. coli NUBL-24; experiment: Mouse infection model, E. coli NUBL-24, survival; assay type: in vivo, mice; conditions: MPM 0.8 mg/kg and SPC 10 mg/kg versus MPM alone, E. coli NUBL-24 1 × 10^7 CFU
Procedure: as §5

[14] = test system: E. coli BL21(DE3)/pET-SIM-1; experiment: Susceptibility testing, SIM-1-producing E. coli; assay type: cell-based; conditions: Escherichia coli
Procedure: as §3

E. coli DH5α/pBC-TMB-2 = experiment: Susceptibility testing, TMB-2-producing E. coli; assay type: cell-based; conditions: Escherichia coli
Procedure: as §3

[15] = read-out: MIC of MPM + inhibitor (8 μg/ml)
[16] = read-out: MIC of MPM + inhibitor (32 μg/ml)
[17] = PAO1, read-out: MIC of MPM + inhibitor (10 μg/ml)
[18] = PAO1, read-out: MIC of MPM + inhibitor (50 μg/ml)

T1 sequence (P52699 19-246 limits assumed): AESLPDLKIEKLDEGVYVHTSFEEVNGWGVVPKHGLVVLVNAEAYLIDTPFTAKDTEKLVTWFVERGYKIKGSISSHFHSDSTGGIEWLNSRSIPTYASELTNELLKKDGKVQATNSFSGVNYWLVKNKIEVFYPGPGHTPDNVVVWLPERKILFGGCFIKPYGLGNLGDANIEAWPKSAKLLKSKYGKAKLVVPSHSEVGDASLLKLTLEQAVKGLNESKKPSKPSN

CCc1oc(CC)c(S(N)(=O)=O)c1C(=O)O [Compound 4, 2,5-diethyl-4-sulfamoylfuran-3-carboxylic acid]
Ki (IMP-1): 300 nM | Ki (VIM-2): 1010 nM | Ki (NDM-1): 920 nM

O=C(O)/C(S)=C/c1c(Cl)ccc(Cl)c1Cl [ML302F]
Selectivity between IMP and NDM/VIM producers [1]: superior for IMP

CC(C)(O/N=C(\C(=O)N[C@@H]1C(=O)N2C(C(=O)[O-])=C(C[n+]3ccccc3)CS[C@H]12)c1csc(N)n1)C(=O)O [CAZ, ceftazidime, reference compound]
MIC (E. coli DH5α/pBC-VIM-2; read-out: MIC of CAZ without inhibitor): 16 µg/mL

O=C(O)c1ncsc1NS(=O)(=O)c1cccnc1 [ANT431]
Selectivity between IMP and NDM/VIM producers [1]: superior for NDM/VIM

Cc1c(C(=O)O)c(S(N)(=O)=O)c(C)n1-c1ccccc1 [Compound 10, 2,5-dimethyl-1-phenyl-4-sulfamoylpyrrole-3-carboxylic acid]
Ki (IMP-1): 7510 nM | Ki (VIM-2): 20800 nM | Ki (NDM-1): 10200 nM

CC/C(C(=O)[O-])=C(\CC)C(=O)[O-].[Na+].[Na+] [ME1071]
Selectivity between IMP and NDM/VIM producers [1]: superior for IMP

NS(=O)(=O)c1c(C2CCCC2)oc(C2CCCC2)c1C(=O)O [Compound 6, 2,5-dicyclopentyl-4-sulfamoylfuran-3-carboxylic acid]
Ki (IMP-1): 1270 nM | Ki (VIM-2): 760 nM | Ki (NDM-1): 250 nM

CCc1c(C(=O)O)c(S(N)(=O)=O)c(CC)n1C [SPC, 2,5-diethyl-1-methyl-4-sulfamoylpyrrole-3-carboxylic acid]
Stability in human liver microsomes [2]: high stability | MIC [3, 15]: 2 µg/mL | MIC [3, 16]: 0.063 µg/mL | MIC [4, 17]: 64 µg/mL | MIC [4, 18]: 16 µg/mL | Toxicity in HeLa cells (HeLa cells): low toxicity | MIC [5, 15]: 0.063 µg/mL | MIC [5, 16]: 0.063 µg/mL | Reduction in MPM MIC (E. coli DH5α/pBC-NDM-1; E. coli DH5α/pBC-NDM-1, 2 μg/ml compound): 256 fold | MIC (E. coli DH5α/pBC-NDM-1; [15]): ≤ 0.25 µg/mL | MIC (E. coli DH5α/pBC-NDM-1; [16]): ≤ 0.25 µg/mL | Isolates whose MPM MIC decreased to susceptibility criteria (MIC ≤1 μg/ml) ([6]; addition of inhibitor, concentration not given (Fig. S5)): 7/14 | Isolates with equal or increased reactivity toward SPC instead of SFC ([6]; reduction in MPM MIC, 4 μg/ml SPC and SFC): 14/14 | MIC [7, 17]: 8 µg/mL | MIC [7, 18]: 4 µg/mL | Isolates whose MPM MIC decreased to susceptibility criteria (MIC ≤2 μg/ml) [8]: 6/8 | Reduction in MPM MIC (E. coli DH5α/pBC-IMP-1; E. coli DH5α/pBC-IMP-1, 2 μg/ml compound): 32 fold | MIC (E. coli DH5α/pBC-IMP-1; [15]): 0.031 µg/mL | MIC (E. coli DH5α/pBC-IMP-1; [16]): 0.031 µg/mL | Isolates whose MPM MIC decreased to susceptibility criteria (MIC ≤1 μg/ml) ([9]; addition of inhibitor, concentration not given (Fig. S5), IMP-producing Enterobacteriaceae): 17/19 | Isolates with equal or increased reactivity toward SPC instead of SFC ([9]; reduction in MPM MIC, 4 μg/ml SPC and SFC, IMP producers): 18/19 | MIC [10, 15]: 0.125 µg/mL | MIC [10, 16]: 0.063 µg/mL | Reduction in CAZ MIC (E. coli DH5α/pBC-VIM-2; E. coli DH5α/pBC-VIM-2, 2 μg/ml compound): 16 fold | MIC (E. coli DH5α/pBC-VIM-2; read-out: MIC of CAZ + inhibitor (8 μg/ml)): 1 µg/mL | MIC (E. coli DH5α/pBC-VIM-2; read-out: MIC of CAZ + inhibitor (32 μg/ml)): 1 µg/mL | Ki (IMP-1): 260 nM | MIC [11, 17]: 4 µg/mL | MIC [11, 18]: 4 µg/mL | Mortality of infected mice under MPM-SPC combination therapy [12]: significantly reduced the mortality | Ki (VIM-2): 20 nM | Mortality of infected mice under MPM-SPC combination therapy [13]: significantly reduced the mortality | Ki (NDM-1): 840 nM | MIC [14, 15]: 1 µg/mL | MIC [14, 16]: 0.125 µg/mL | MIC (E. coli DH5α/pBC-TMB-2; [15]): 0.063 µg/mL | MIC (E. coli DH5α/pBC-TMB-2; [16]): 0.031 µg/mL
